Key:
Assay type in all cases: functional, cell-based
[1] = tested on: A549; test: Cytotoxicity against human A549 cells assessed as cell viability after 48 hrs by MTT assay; settings: A549, 48 h
[2] = tested on: HOP-62; test: Cytotoxicity against human HOP-62 cells assessed as cell viability after 48 hrs by MTT assay; settings: HOP-62, 48 h
[3] = tested on: NCI-H727; test: Cytotoxicity against human NCI-H727 cells assessed as cell viability after 48 hrs by MTT assay; settings: NCI-H727, 48 h

Row | Compound | IC50 [1] | IC50 [2] | IC50 [3]
1 | O=C(/C=C/c1cccc(S(=O)(=O)Nc2ccc3nc4n(c(=O)c3c2)CCCCC4)c1)NO | 3 µM | – | –
2 | O=C(CCCCCC(=O)Nc1ccc2nc3n(c(=O)c2c1)CCCCC3)NO | 11 µM | – | –
3 | O=C(CCCCCCCCC(=O)Nc1ccc2nc3n(c(=O)c2c1)CCCCC3)NO | 11 µM | – | –
4 | O=C(/C=C/c1ccc(CNc2ccc3nc4n(c(=O)c3c2)CCCC4)cc1)NO | 1.56 µM | 1.71 µM | 1.34 µM
5 | O=c1c2ccccc2nc2n1CCCCC2 | 6 µM | – | –
6 | O=C(CCCCCCC(=O)Nc1ccc2nc3n(c(=O)c2c1)CCCC3)NO | 16 µM | – | –
7 | O=C(CCCCCCC(=O)Nc1ccc2nc3n(c(=O)c2c1)CCCCCC3)NO | 22 µM | – | –
8 | O=C(/C=C/c1ccc(CNc2ccc3nc4n(c(=O)c3c2)CCCCCC4)cc1)NO | 1.89 µM | 1.95 µM | 1.78 µM
9 | O=C(CCCCCCC(=O)Nc1ccc2nc3n(c(=O)c2c1)CCCCC3)NO | 14 µM | – | –
10 | O=C(CCCCCCCC(=O)Nc1ccc2nc3n(c(=O)c2c1)CCCCC3)NO | 12 µM | – | –
11 | O=C(CCCCCCC(=O)Nc1ccc2nc3n(c(=O)c2c1)CCC3)NO | 17 µM | – | –
12 | O=C(NO)c1ccc(CNc2ccc3nc4n(c(=O)c3c2)CCCCC4)cc1 | 10 µM | – | –
13 | O=C(NO)c1ccc(C(=O)Nc2ccc3nc4n(c(=O)c3c2)CCCCC4)cc1 | 9 µM | – | –
14 | O=C(/C=C/c1ccc(CNc2ccc3nc4n(c(=O)c3c2)CCC4)cc1)NO | 1.21 µM | 1.78 µM | 1.11 µM

— ChEMBL document CHEMBL5113502, “Accommodation of ring C expanded deoxyvasicinone in the HDAC inhibitory pharmacophore culminates into a tractable anti-lung cancer agent and pH-responsive nanocarrier” (Eur J Med Chem, 2022)
